Reference: patent EP4567031A1, “HPK1 INHIBITOR, PREPARATION METHOD THEREFOR, AND USE THEREOF” (Beijing Earthwise Technology Co., Ltd., priority 2022, dated 2024)

Legend:
[1] = system: Phospho-SLP-76 (Ser376); experiment: Phospho-SLP-76 (Ser376) HTRF assay in Jurkat E6-1 cells; assay type: cell-based; details: Homo sapiens, compound 4 hours, then anti-CD3 antibody 20 minutes, read-out: pSLP76, IC50
Procedure: A compound was dissolved in DMSO to 10 mM, and then diluted three-fold with DMSO to 10 dosages in a 96-well plate. Then, 3 µL of the diluted compound sample was transferred to a 96-well plate with 97 µL of cell culture medium, and the plate was shaken for 5 minutes. According to the experimental design diagram, 7.5 µL of the diluted compound sample was transferred to a cell plate. Final concentrations of the compound in this assay were 10000.00, 3333.33, 1111.11, 370.37, 123.46, 41.15, 13.72, 4.57, 1.52 and 0.51 nM.
In this assay, the density of Jurkat E6-1 cells was maintained between 3*10^5 to 3*10^6 cells/mL. The cell culture was replaced with fresh culture medium every 2 to 3 days (depending on the cell density).
30 µL of Jurkat E6-1 (300,000 cells) was added to a 96-well plate and incubated in a 37 °C incubator for 1 hour. Then, according to the experimental design diagram, compounds (6×, 7.5 µL) were added to treat the cells for 4 hours, respectively. After 4 hours, purified anti-human anti-CD3 antibodies (6×, 7.5 µL) were added to treat the cells for 20 minutes. After 20 minutes, 15 µL of cell lysis buffer (4×) was added, and the cells were lysed at 25 °C with shaking (250 rpm) for 1 hour. Then, according to the experimental design diagram, 16 µL of cell lysate was transferred to a 384-well plate using a pipette. After the transfer, 4 µL of antibody detection mixture was added. After being placed at room temperature overnight, the plate was read by EnVision multi-function microplate reader to read the FRET signal (the ratio of HTRF 665/615 was calculated from the readings at 665 nm and 615 nm).
The ratio of the signal at 665 nm to the signal at 615 nm was converted to the percentage of inhibition. Inhibition % = (maximum value - sample value) / (maximum value - minimum value)×100. The minimum value refers to the signal value of a well without anti-CD3 antibody stimulation during the treatment of cells, and the maximum value refers to the signal value of a well with anti-CD3 antibody stimulation but without the compound during the treatment of cells. IC50 values were calculated by XLFit (version 5.3.1.3) in excel. Equation: Y = Bottom + (Top-Bottom) / (1 + (IC50/X) ^ HillSlope). Table 4. Results of cellular activity of the compounds

[2] = target: T1, HPK1 (Homo sapiens, UniProt Q92918); experiment: HPK1 ADP-Glo kinase assay; assay type: biochemical; details: 40 µM ATP; 5 nM HPK1; MBP protein substrate
T1 sequence (Q92918 whole entry, species assumed): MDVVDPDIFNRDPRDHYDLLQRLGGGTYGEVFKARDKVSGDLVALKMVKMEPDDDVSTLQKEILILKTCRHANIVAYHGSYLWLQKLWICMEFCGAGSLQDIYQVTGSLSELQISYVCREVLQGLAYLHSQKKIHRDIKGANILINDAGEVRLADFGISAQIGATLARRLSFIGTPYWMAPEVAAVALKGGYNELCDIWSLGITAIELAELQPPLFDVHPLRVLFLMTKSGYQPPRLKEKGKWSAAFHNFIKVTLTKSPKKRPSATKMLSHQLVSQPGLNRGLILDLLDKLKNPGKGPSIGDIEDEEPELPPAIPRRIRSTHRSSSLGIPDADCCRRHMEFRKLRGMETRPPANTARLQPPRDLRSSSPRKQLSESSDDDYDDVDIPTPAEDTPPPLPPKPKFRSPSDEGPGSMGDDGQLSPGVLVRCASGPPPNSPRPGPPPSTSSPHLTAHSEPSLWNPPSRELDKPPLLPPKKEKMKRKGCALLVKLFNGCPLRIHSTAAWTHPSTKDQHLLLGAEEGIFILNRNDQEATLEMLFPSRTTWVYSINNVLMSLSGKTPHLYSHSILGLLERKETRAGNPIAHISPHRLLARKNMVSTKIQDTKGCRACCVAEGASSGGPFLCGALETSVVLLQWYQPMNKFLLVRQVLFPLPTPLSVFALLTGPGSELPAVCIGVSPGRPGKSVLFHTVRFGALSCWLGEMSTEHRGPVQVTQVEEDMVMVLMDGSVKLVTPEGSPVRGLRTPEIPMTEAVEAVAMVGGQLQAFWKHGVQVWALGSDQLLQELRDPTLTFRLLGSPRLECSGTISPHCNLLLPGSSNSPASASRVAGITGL
Procedure: 1×kinase buffer (40 mM Tris-HCl (pH 7.5), 20 mM MgCl2, 0.1 mg/ml BSA, 0.05 mM DTT), 2 µM MBP protein and 40 µM ATP, […] were included in the reaction mixture. The reaction was initiated by adding 5 nM HPK1. After 60 minutes of reaction, the assay was terminated by adding 5 µL of ADP-Glo™ reagent. After 60 minutes, 10 µL of kinase assay reagent was added. After being incubated at room temperature for 60 minutes, the assay plate was read by EnVision multi-function microplate reader.
(§1) The luminescent signal value was converted to the percentage of inhibition. Inhibition % = (maximum value - sample value) / (maximum value - minimum value)×100. The minimum value refers to the value measured in a well without enzyme but with DMSO and substrate, and the maximum value refers to the value measured in a well with DMSO, enzyme and substrate. IC50 values were calculated by XLFit (version 5.3.1.3) in Excel. Equation: Y = bottom + (top - bottom) / (1 + (IC50/X) ^ HillSlope).

[3] = system: human Pan T cells; experiment: Human Pan T cell IL-2 ELISA; assay type: cell-based; details: Homo sapiens, T-cell, 48 h, Anti-CD3 and Anti-CD28, supernatant IL-2 ELISA, read-out: IL-2 release, EC50
Procedure, shortened: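 Human Pan T cells (1×10^6 cells/ml) stimulated with plate-bound anti-CD3 plus anti-CD28 and treated 48 h with compound at 9 final concentrations, 39.063–10000 nM. Supernatant IL-2 by ELISA, expressed as fold over DMSO wells; EC50 from four-parameter logistic fit.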

[4] = target: T1, HPK1; experiment: HPK1 HTRF kinase assay; assay type: biochemical; details: 1000 µM ATP; 50 nM HPK1; STK1 substrate; read-out: HPK1, IC50
Procedure: The reaction was initiated by adding 50 nM HPK1. After 120 minutes of reaction, the assay was terminated by adding 10 µL of Detection Mix.
as §1, with “The ratio of the” for “The luminescent”, “signal at 665 nm to the signal at 615 nm” for “signal value”, “= Bottom” for “= bottom”, “+ (Top” for “+ (top”, “- Bottom)” for “- bottom)”

Row | Compound | IC50 [1] | IC50 [2] | EC50 [3] | IC50 [4]
1 | CC1(C)c2cc(N3CCOCC3)ccc2Nc2c1cc(-c1cnc3c(Cl)cccn13)c1cc[nH]c(=O)c21 [Example 1] | 121 nM | 0.1 nM | – | –
2 | COc1cccn2c(-c3cc4c(c5c(=O)[nH]ccc35)Nc3ccc(N5CCOC(C(C)(C)O)C5)cc3C4(C)C)cnc12 (stereo not shown) [Example 2] | 64 nM | 1.7 nM | – | –
3 | COc1cccn2c(-c3cc4c(c5c(=O)[nH]ccc35)Nc3ccc(N5CCOCC5)cc3C4(C)C)cnc12 [Example 3] | 57.5 nM | 0.3 nM | 38 nM | –
4 | CC1(C)c2cc(N3CCOCC3)ccc2Nc2c1cc(-c1cnn3cccnc13)c1cc[nH]c(=O)c21 [Example 4] | 38.1 nM | – | 4.61 nM | –
5 | Cc1ccn2c(-c3cc4c(c5c(=O)[nH]ccc35)Nc3ccc(N5CCOCC5)cc3C4(C)C)cnc2c1F [Example 5] | – | 3.44 nM | 10.8 nM | –
6 | Cc1ccn2c(-c3cc4c(c5c(=O)[nH]ccc35)Nc3ccc(N5CCOC(C(C)(C)O)C5)cc3C4(C)C)cnc2c1F (stereo not shown) [Example 6] | 164 nM | – | 13 nM | –
7 | Cc1ccc2c(-c3cc4c(c5c(=O)[nH]ccc35)Nc3ccc(N5CCOC(C(C)(C)O)C5)cc3C4(C)C)cnn2c1 (stereo not shown) [Example 7] | 487 nM | – | – | –
8 | COc1cccc2c(-c3cc4c(c5c(=O)[nH]ccc35)Nc3ccc(N5CCOCC5)cc3C4(C)C)cnn12 [Example 8] | 103 nM | – | 5.5 nM | –
9 | Cc1ccn2c(-c3cc4c(c5c3CNC5=O)Nc3ccc(N5CCOC(C(C)(C)O)C5)cc3C4(C)C)cnc2c1F (stereo not shown) [Example 9] | 57.8 nM | – | 3.09 nM | 20.4 nM
10 | COc1cccn2c(-c3cc4c(c5c3CNC5=O)Nc3ccc(N5CCOCC5)cc3C4(C)C)cnc12 [Example 10] | 42.7 nM | – | – | 8.39 nM
11 | Cc1ccn2c(-c3cc4c(c5c3CNC5=O)Nc3ccc(N5CCOCC5)cc3C4(C)C)cnc2c1F [Example 11] | 73.3 nM | – | 13.8 nM | 7.38 nM
12 | CC1(C)c2cc(N3CCOCC3)ccc2Nc2c1cc(-c1cnc3cccnn13)c1c2C(=O)NC1 [Example 12] | 25.9 nM | – | 6.67 nM | 6.99 nM
13 | COc1cccn2c(-c3cc4c(c5c3CCNC5=O)Nc3ccc(N5CCOCC5)cc3C4(C)C)cnc12 [Example 13] | 24.4 nM | – | – | –
14 | COc1cccn2c(-c3cc4c(c5c3CNC5=O)Nc3cnc(N5CCOCC5)cc3C4(C)C)cnc12 [Example 14] | 197 nM | – | 49.1 nM | 30.3 nM
15 | COc1cccc2c(-c3nc4c(c5c3CCNC5=O)Nc3ccc(N5CCOCC5)cc3C4(C)C)cnn12 [Example 15] | 72.2 nM | – | 3.95 nM | –
16 | CC1(C)c2cc(N3CCOCC3)ccc2Nc2c1cc(-c1cnn3cccnc13)c1c2C(=O)NC1 [Example 16] | 31.6 nM | – | 6.81 nM | 2.85 nM
17 | CC1(C)c2cc(N3CCOCC3)ccc2Nc2c1cc(-c1cnn3c(C#N)cccc13)c1c2C(=O)NC1 [Example 17] | 56.9 nM | – | 3.72 nM | 6.31 nM
18 | COc1cccc2c(-c3cc4c(c5c3CNC5=O)Nc3ccc(N5CCOCC5)cc3C4(C)C)cnn12 [Example 18] | 66 nM | – | 11.8 nM | 11.7 nM
19 | COc1cccn2c(-c3cc4c(c5c3CNC5=O)Nc3ccc(N5CCOCC5)nc3C4(C)C)cnc12 [Example 20] | 83.6 nM | – | 11.3 nM | 5.76 nM

Row | Compound | IC50 [1] | IC50 [2] | EC50 [3] | IC50 [4]
20 | COc1cccc2c(-c3cc4c(c5c3CNC5=O)Nc3ncc(N5CCOCC5)cc3C4(C)C)cnn12 [Example 21] | 37 nM | – | 8.32 nM | –
21 | COc1ccnn2c(-c3cc4c(c5c3CNC5=O)Nc3ccc(N5CCOCC5)cc3C4(C)C)cnc12 [Example 31] | 58.8 nM | – | 3.7 nM | 24.8 nM
22 | Cn1ccn2c(-c3cc4c(c5c3CNC5=O)Nc3ccc(N5CCOCC5)cc3C4(C)C)cnc2c1=O [Example 41] | 13.5 nM | – | 6.09 nM | –
23 | CC1(C)c2cc(N3CCOCC3)c(C(F)F)cc2Nc2c1cc(-c1cnn3cccnc13)c1c2C(=O)NC1 [Example 73] | – | – | 28.9 nM | 7.87 nM
24 | CC1(C)c2cc(N3CCOCC3)ccc2Nc2c1cc(-c1cncc(OCC3COC3)c1)c1c2C(=O)NC1 [Example 74] | – | – | 100 nM | 49.7 nM
25 | COc1cccn2c(-c3cc4c(c5c3CNC5=O)Nc3ccc(N5CCOCC5)cc3C4(C)C)nnc12 [Example 75] | – | – | 1.41 nM | 4.55 nM
26 | COc1cncc2c(-c3cc4c(c5c3CNC5=O)Nc3ccc(N5CCOCC5)cc3C4(C)C)cnn12 [Example 76] | – | – | 50.4 nM | 8.73 nM
27 | CC1(C)c2cc(N3CCOCC3)ccc2Nc2c1cc(-c1cnn3c1OCCC3)c1c2C(=O)NC1 [Example 77] | – | – | 13.6 nM | 4.56 nM
28 | CN1CCn2c(-c3cc4c(c5c3CNC5=O)Nc3ccc(N5CCOCC5)cc3C4(C)C)cnc2C1 [Example 78] | – | – | 75.5 nM | 35 nM
29 | CC1(C)c2cc(N3CCOCC3)ccc2Nc2c1cc(-c1cnc3n1CCOC3)c1c2C(=O)NC1 [Example 79] | – | – | 19.5 nM | 6.36 nM
30 | CC1(C)c2cc(N3CCOCC3)ccc2Nc2c1cc(-n1cnc3c1CCCC3)c1c2C(=O)NC1 [Example 80] | – | – | 86.6 nM | 9.18 nM
31 | Cc1cc(-c2cc3c(c4c2CNC4=O)Nc2ccc(N4CCOCC4)cc2C3(C)C)cc(=O)[nH]1 [Example 81] | – | – | 35.8 nM | 6.31 nM
32 | CNc1cncc(-c2cc3c(c4c2CNC4=O)Nc2ccc(N4CCOCC4)cc2C3(C)C)c1 [Example 82] | – | – | 27 nM | 6.62 nM
33 | CC1(C)c2cc(C3CCNCC3)ccc2Nc2c1cc(-c1cnn3cccnc13)c1c2C(=O)NC1 [Example 83] | – | – | 17.4 nM | 5.8 nM
34 | CN1CCn2c(-c3cc4c(c5c3CNC5=O)Nc3ccc(N5CCOCC5)cc3C4(C)C)cnc2C1=O [Example 84] | – | – | 65.9 nM | 8.63 nM
35 | CC1(C)c2cc(N3CCOCC3)ccc2Nc2c1cc(-c1cnc3n1CCC3)c1c2C(=O)NC1 [Example 86] | – | – | 11.5 nM | 7.95 nM
36 | Cc1ncc(-c2cc3c(c4c2CNC4=O)Nc2ccc(N4CCOCC4)cc2C3(C)C)n1C [Example 87] | – | – | 8.97 nM | 7.88 nM
37 | CC1(C)c2cc(NC(=O)COCCO)ccc2Nc2c1cc(-c1cnn3cccnc13)c1c2C(=O)NC1 [Example 92] | – | – | 68.2 nM | 7.64 nM
